Data taken from US20170333591A9, “ABSORBENT ARTICLE COMPRISING MALODOR REDUCTION COMPOSITIONS” (The Procter & Gamble Company, priority 2014, published 2017).

Test: Log of liquid dish neat product liquid-air partition coefficient
Format: physicochemical
Conditions: for Log of liquid dish neat product liquid-air partition coefficient (Comment Code): code letters K/L of the Comment Code

In the case of CC(C)(C=O)CC1=CCC2CC1C2(C)C (stereo not shown) [Material 925], the “Log of liquid dish neat product liquid-air partition coefficient (Comment Code)” value (“Log … (Comment Code)” for short) is reported as “K (Log of liquid dish neat product liquid-air partition coefficient greater than or equal to 7)”.

In the case of CC(=O)c1cc2c(cc1C)C(C)(C)C(C)C2(C)C (stereo not shown) [Material 927], the “Comment Code: Log of liquid dish neat product liquid-air partition coefficient” value (shortened to “Comment Code: Log”) is reported as “K (Log of liquid dish neat product liquid-air partition coefficient greater than or equal to 7)” and the “Log … (Comment Code)” value is reported as “K (Log of liquid dish neat product liquid-air partition coefficient greater than or equal to 7)”.

In the case of Cc1cccc(CCO)c1 [Material 928], the “Log … (Comment Code)” value is reported as “K (Log of liquid dish neat product liquid-air partition coefficient greater than or equal to 7)”.

For CCC=CCC=CCCO [Material 929], the “Log … (Comment Code)” value was “K (Log of liquid dish neat product liquid-air partition coefficient greater than or equal to 7)”.

For CCCCCCCCCCC=CC=O [Material 930], the “Log … (Comment Code)” value was “K (Log of liquid dish neat product liquid-air partition coefficient greater than or equal to 7)”.

In the case of C=C(OC(C)=O)c1ccccc1 [Material 931], the “Comment Code: Log” value is reported as “K (Log of liquid dish neat product liquid-air partition coefficient greater than or equal to 7)”.

With CC1CCC2(O)C(C)(C)C3CCC2(C)C1C3 (stereo not shown) [Material 933] the “Comment Code: Log” value was “K (Log of liquid dish neat product liquid-air partition coefficient greater than or equal to 7)” and the “Log … (Comment Code)” value was “K (Log of liquid dish neat product liquid-air partition coefficient greater than or equal to 7)”.

In the case of CCCCCC(=O)Oc1ccc(C)cc1 [Material 939], the “Log … (Comment Code)” value is reported as “K (Log of liquid dish neat product liquid-air partition coefficient greater than or equal to 7)”.

For CCCCC/C=C/C=C\C(=O)OCC [Material 942], the “Log … (Comment Code)” value was “K (Log of liquid dish neat product liquid-air partition coefficient greater than or equal to 7)”.

In the case of N#CC(=C1CCCCC1)c1ccccc1 [Material 945], the “Log … (Comment Code)” value is reported as “K (Log of liquid dish neat product liquid-air partition coefficient greater than or equal to 7)”.

In the case of C=C(C)C1CC=C(C=O)CC1 (stereo not shown) [Material 946], the “Log … (Comment Code)” value is reported as “K (Log of liquid dish neat product liquid-air partition coefficient greater than or equal to 7)”.

In the case of C=C(C)C1CC=C(COC(C)=O)CC1 (stereo not shown) [Material 947], the “Log … (Comment Code)” value is reported as “K (Log of liquid dish neat product liquid-air partition coefficient greater than or equal to 7)”.

For C=C(C)C1CC=C(CO)CC1 (stereo not shown) [Material 948], the “Log … (Comment Code)” value was “K (Log of liquid dish neat product liquid-air partition coefficient greater than or equal to 7)”.

For CCCCC/C=C/C=C\C(=O)OCC [Material 951], the “Log … (Comment Code)” value was “K (Log of liquid dish neat product liquid-air partition coefficient greater than or equal to 7)”.

For c1ccc(CCOC2CCCCC2)cc1 [Material 953], the “Log … (Comment Code)” value was “K (Log of liquid dish neat product liquid-air partition coefficient greater than or equal to 7)”.

In the case of CCC(C)C(=O)OCCc1ccccc1 (stereo not shown) [Material 954], the “Log … (Comment Code)” value is reported as “K (Log of liquid dish neat product liquid-air partition coefficient greater than or equal to 7)”.

For OCCc1ccccc1 [Material 955], the “Log … (Comment Code)” value was “K (Log of liquid dish neat product liquid-air partition coefficient greater than or equal to 7)”.

For O=COCCc1ccccc1 [Material 956], the “Comment Code: Log” value was “K (Log of liquid dish neat product liquid-air partition coefficient greater than or equal to 7)”.

With CC(C)C(=O)OCCc1ccccc1 [Material 958] the “Comment Code: Log” value was “K (Log of liquid dish neat product liquid-air partition coefficient greater than or equal to 7)”.

With C/C=C(\C)C(=O)OCCc1ccccc1 [Material 960] the “Comment Code: Log” value was “K (Log of liquid dish neat product liquid-air partition coefficient greater than or equal to 7)”.

In the case of O=C(Oc1ccccc1)c1ccccc1 [Material 965], the “Log … (Comment Code)” value is reported as “K (Log of liquid dish neat product liquid-air partition coefficient greater than or equal to 7)”.

In the case of C=C(C)C(=O)OCCc1ccccc1 [Material 971], the “Comment Code: Log” value is reported as “K (Log of liquid dish neat product liquid-air partition coefficient greater than or equal to 7)”.

For CC(C)c1ccc(CC=O)cc1 [Material 977], the “Comment Code: Log” value was “K (Log of liquid dish neat product liquid-air partition coefficient greater than or equal to 7)”.

In the case of CC(C)(C)C(=O)OC1CC2CC1C1CC=CC21 (stereo not shown) [Material 978], the “Comment Code: Log” value is reported as “K (Log of liquid dish neat product liquid-air partition coefficient greater than or equal to 7)” and the “Log … (Comment Code)” value is reported as “K (Log of liquid dish neat product liquid-air partition coefficient greater than or equal to 7)”.

With CC(C)C1=CCC(C)(O)CC1 (stereo not shown) [Material 982] the “Log … (Comment Code)” value was “K (Log of liquid dish neat product liquid-air partition coefficient greater than or equal to 7)”.

In the case of COc1ccc(CC(C)=O)cc1 [Material 983], the “Comment Code: Log” value is reported as “K (Log of liquid dish neat product liquid-air partition coefficient greater than or equal to 7)”.

With CC1=CCC(/C=C/C(C)(C)C(C)O)C1(C)C (stereo not shown) [Material 985] the “Log … (Comment Code)” value was “K (Log of liquid dish neat product liquid-air partition coefficient greater than or equal to 7)”.

In the case of CC(C)=CCCC1=CCC(C)(C=O)CC1 (stereo not shown) [Material 988], the “Log … (Comment Code)” value is reported as “K (Log of liquid dish neat product liquid-air partition coefficient greater than or equal to 7)”.

In the case of CC(C)(C)c1ccc(CC=O)cc1 [Material 994], the “Comment Code: Log” value is reported as “K (Log of liquid dish neat product liquid-air partition coefficient greater than or equal to 7)”.

In the case of CCC(C)(C)C1CCC(O)CC1 (stereo not shown) [Material 995], the “Comment Code: Log” value is reported as “K (Log of liquid dish neat product liquid-air partition coefficient greater than or equal to 7)”.

With CCC=CCC=CC=CC(=O)OCC [Material 1000] the “Log … (Comment Code)” value was “K (Log of liquid dish neat product liquid-air partition coefficient greater than or equal to 7)”.

With CC(=O)CCc1ccc(O)cc1 [Material 1002] the “Comment Code: Log” value was “K (Log of liquid dish neat product liquid-air partition coefficient greater than or equal to 7)”.

In the case of CC1CC(C)(C)OC(Cc2ccccc2)O1 (stereo not shown) [Material 1003], the “Log … (Comment Code)” value is reported as “K (Log of liquid dish neat product liquid-air partition coefficient greater than or equal to 7)”.

With CC1CC(C)(c2ccccc2)CO1 (stereo not shown) [Material 1006] the “Log … (Comment Code)” value was “K (Log of liquid dish neat product liquid-air partition coefficient greater than or equal to 7)”.

In the case of CC1=CC[C@@H]2C3CC([C@@H]2C1)[C@@]1(C3)OC1C (stereo partly shown) [Material 1007], the “Comment Code: Log” value is reported as “K (Log of liquid dish neat product liquid-air partition coefficient greater than or equal to 7)” and the “Log … (Comment Code)” value is reported as “K (Log of liquid dish neat product liquid-air partition coefficient greater than or equal to 7)”.

In the case of CC(CO)CCCc1ccccc1 (stereo not shown) [Material 1012], the “Log … (Comment Code)” value is reported as “K (Log of liquid dish neat product liquid-air partition coefficient greater than or equal to 7)”.

For CC1=CCOC(c2ccccc2)C1 (stereo not shown) [Material 1016], the “Log … (Comment Code)” value was “K (Log of liquid dish neat product liquid-air partition coefficient greater than or equal to 7)”.

In the case of C=C[C@@](C)(O)CCC=C(C)C [Material 1017], the “Comment Code: Log” value is reported as “K (Log of liquid dish neat product liquid-air partition coefficient greater than or equal to 7)”.

In the case of C=CCc1ccc2c(c1)OCO2 [Material 1021], the “Log … (Comment Code)” value is reported as “K (Log of liquid dish neat product liquid-air partition coefficient greater than or equal to 7)”.

For CC1=CC(C)C2(CCCC(C)(C)C2=O)CC1 (stereo not shown) [Material 1022], the “Comment Code: Log” value was “K (Log of liquid dish neat product liquid-air partition coefficient greater than or equal to 7)” and the “Log … (Comment Code)” value was “K (Log of liquid dish neat product liquid-air partition coefficient greater than or equal to 7)”.

With CC1=CCC(CCC(C)C(C)O)C1(C)C (stereo not shown) [Material 1023] the “Log … (Comment Code)” value was “K (Log of liquid dish neat product liquid-air partition coefficient greater than or equal to 7)”.

With CC/C(=C/CC1CC=C(C)C1(C)C)CO (stereo not shown) [Material 1024] the “Comment Code: Log” value was “K (Log of liquid dish neat product liquid-air partition coefficient greater than or equal to 7)” and the “Log … (Comment Code)” value was “K (Log of liquid dish neat product liquid-air partition coefficient greater than or equal to 7)”.

In the case of CC(=CCC1CC=C(C)C1(C)C)CO (stereo not shown) [Material 1025], the “Log … (Comment Code)” value is reported as “K (Log of liquid dish neat product liquid-air partition coefficient greater than or equal to 7)”.

In the case of COC1CC2CC1C1CC(C=O)CC21 (stereo not shown) [Material 1026], the “Log … (Comment Code)” value is reported as “K (Log of liquid dish neat product liquid-air partition coefficient greater than or equal to 7)”.

For COC1CC2CC1C1CC(C=O)CC21 (stereo not shown) [Material 1027], the “Comment Code: Log” value was “K (Log of liquid dish neat product liquid-air partition coefficient greater than or equal to 7)” and the “Log … (Comment Code)” value was “K (Log of liquid dish neat product liquid-air partition coefficient greater than or equal to 7)”.
